Measured values from US20260306633A1, “A COMBINATION THERAPY FOR CANCER TREATMENT” (Purdue Research Foundation, priority 2023, published 2026).
Where “and” joins values, the source holds several entries; their conditions need not be identical. Identical values can stand only once. Entries after “also recorded” stand apart in the source; their conditions may differ.

Assays:
TNBC cells [1] = test: Combination index (CI) of binary therapy, Chou-Talalay method, CompuSyn software; format: cell-based, human; settings: PS 50 nM + methotrexate 500 μM (footnote 500 nM)
TNBC BT-549 cells = test: Cell survival / cell inhibition (MTT cell cytotoxicity assay) after 24 h treatment with photosensitizer and/or chemotherapeutic agent, dark or light-irradiated; format: cell-based, human
Method: Human mammary epithelial carcinoma cell lines purchased from the American Type Culture Collection BT-549 (ATCC HTB-122) were cultured according to ATCC protocol. BT-549 cells were grown in RPMI 1640 containing 0.023 IU/mL insulin and supplemented with 10% fetal bovine serum (FBS). Cells were grown to 80-90% confluence in 75-cm^2 culture flasks (Corning) for 4-5 days in a humidified incubator (Fisher Scientific Isotemp) with 5% CO2 at 37° C. During the incubation period, growth media was changed once with fresh pre-warmed media (pH 7.2). To harvest the cells, old growth media was aspirated out, and 3 mL 0.25% trypsin solution (Thermo Sci Hyclone) were added. The cells were incubated for 5 minutes, and the cell pellet after centrifugation was resuspended in 3 mL media, broken up gently, then 1 mL of suspended cells was transferred into a new T75 cell culture flask containing pre-warmed media (20 mL) for further culturing.
(§1) Cells were grown to confluence in a 96-well plate (9×10^3 cells/well) and co-treated for 24 hours with synthesized photosensitizers (PSs) and chemotherapeutic agents of varying concentrations ranging from 5 nM to 50 μM) in growth media from a stock solution of 10 mM in DMSO (dimethyl sulfoxide, Fisher). After 24-hour treatment, old growth media containing the PSs or compounds were aspirated out and replaced with fresh media. Plates were then positioned below a non-coherent LumaCare LC-122 650 nm light source for 1 minute at an energy fluence rate of 0.96 J/cm^2 and a power of 16 mW/cm^2 (measured using a Newport optical power meter Model 840). Unirradiated cells served as control samples. The following day, cells were washed with pre-warmed PBS, and 11MTT (3-[4,5-dimethyl-thiazol-2-yl]-2.5-diphenyltetrazolium bromide, Sigma, 0.3 mg/mL) in PBS was added to each well. Samples were allowed to incubate for additional 2 hours, after which dark blue crystals formed. DMSO was added to each well and plates were shaken at room temperature for 1 hour to dissolve the purplish-blue formazan crystals. Absorbance values at 570 nm were measured on a microplate reader (BioRad 550). Cell survival was calculated based on the absorbance of the untreated cells alone (as control) and were directly proportional to the number of viable cells in culture. Results were reported as the mean±SD of triplicate measurements.
The unmetallated PS and the indium complexes were used.
Light dose corresponds to an energy fluence rate of 0.96 J/cm^2 used.
Power of 16 mW/cm^2 used.
Cell inhibition in TNBC cells is based on the cell survival (MTT) assay of the binary therapy, blending the effect of PDT and chemotherapeutic agents. […] MePheo serves as a control compound. TNBC cells were then exposed to light after binary treatment for 24 hours.

TNBC cells [2] = test: Combination index (CI) of binary therapy, Chou-Talalay method, CompuSyn software; format: cell-based, human
Method: (§2) The calculated CI values are based on 50 nM concentration for the PSs, 50 nM paclitaxel, 500 nM doxorubicin, 25 μM cisplatin, 25 μM fluorouracil, and 500 nM methotrexate.
as §1
The combination index (CI) for the binary treatment of TNBC cells with a PS and a chemotherapeutic drug was calculated based on the Chou-Talalay method using CompuSyn software. […] The unified dynamics algorithm uses a minimum of dose-data points to fit the general MAL theory.
as §2

human TNBC BT-549 cells = test: Fluorescence microscopy (Hoechst 33258) of cell morphology / cell death pathway; format: cell-based
Method: Grayscale images of cells stained with Hoechst 33258. Morphology of (A) untreated unirradiated cells, sham control; (B) illuminated cells; (C-E) cells treated with: PSs (InCLA, CBTN, and CPA) and paclitaxel in the dark; (F-H) PSs, followed by 1 minute light exposure; (I) paclitaxel unirradiated; (J-L) PSs and paclitaxel in the dark; (M-O) PSs co-treated with paclitaxel, then light-exposed; (P-Q) PSs co-treated with doxorubicin, then irradiated; (R) PSs and cisplatin, dark; (S-T) PSs and cisplatin, irradiated; (U) fluorouracil, dark; (V) InCLA with fluorouracil in the dark; (W) light-exposed and, (X-Y) PSs with methotrexate with light. Inserts indicate enlarged view. […] Light dose in 1 minute=0.96 J cm^−2; in 30 seconds=0.48 J cm^−2. Concentrations: PSs=50 nM; paclitaxel=50 nM; doxorubicin=500 nM; cisplatin=25 μM; fluororuracil=25 μM; and, methotrexate=500 nM.
Cells (1 mL aliquots) obtained from a diluted cell suspension were seeded into each well (1.7 cm^2, 8×10^3 cells/well) of a 4-well culture slide (BD Biosciences) and grown to confluence in 5% CO2 at 37° C. for 3-4 days for attachment to the substratum. After aspirating the old growth media, 1 mL of the photosensitizer and chemotherapeutic agents (with appropriate concentrations) in fresh pre-warmed media at 37° C. was added to each well. After compound treatment for 24 hours, cells were washed twice with 1 mL fresh growth media, and then irradiated with light using LumaCare LC-122 as described above. Cells were stained in the dark with Hoechst 33258 (Molecular Probes) in pre-warmed media for 10 minutes at 37° C., washed twice with filtered PBS, then fixed with filtered paraformaldehyde for 15 minutes in the incubator. After thorough liquid aspiration, the wells were removed and allowed to air dry in the dark for 1 hour. Slides were protected with coverslips, whose edges were sealed using clear fast-drying nail polish and allowed to dry at room temperature in the dark for 30 minutes. Images were recorded using fluorescence microscopy (DAPI for Hoechst 350-390 nm excitation and 460-490 nm emission filters) using an upright fluorescence microscope with Retiga imaging 2000R (Nikon Optiphot-2, 20× and 40×) and an image processing Nikon NIS-Elements V4.0 Qimaging software.
To determine the preferred cell death pathway for the binary chemophotodynamic therapy, tracking the hallmarks of apoptosis or necrosis was accomplished using a nuclear stain to monitor chromatin condensation and cellular contraction. TNBC cells are spindle-shaped and nearly round with intact cytoplasm, diffused chromatin, distinct cellular membrane, and large oval nuclei staining dark blue with the nuclear stain (FIG. 18A-B).

[3] = PS 100 nM + fluorouracil 25 μM, light

C=Cc1c(C)c2cc3nc(c(CC(=O)OC)c4[nH]c(cc5nc(cc1[nH]2)C(C)=C5CC)c(C)c4C(=O)NCCCCCCNC(=O)CCCCC1SCC2NC(=O)NC21)C(CCC(=O)OC)C3C (stereo not shown) [CBTN, chlorin biotin conjugate]
combination index (CI) with methotrexate (TNBC cells [1]): 1.57
synergism vs additive vs antagonism effect with methotrexate (TNBC cells [1]): (A) (A (1.45-3.3), antagonism)
cell inhibition (%), combination with cisplatin (TNBC BT-549 cells; PS 100 nM + cisplatin 25 μM, 24 h, light 0.96 J cm−2): 53%
effect of added cisplatin compared to cisplatin-treated cell viability (TNBC BT-549 cells; PS 100 nM + cisplatin 25 μM, light): reduced cell survival
cell survival, co-treatment with doxorubicin in the dark (TNBC BT-549 cells; PS 100 nM + doxorubicin 500 nM, 24 h, dark): 51%
cell inhibition (%), combination with doxorubicin (TNBC BT-549 cells; PS 100 nM + doxorubicin 500 nM, 24 h, light 0.96 J cm−2): 64%
cell survival, co-treatment with doxorubicin upon light (TNBC BT-549 cells; PS 100 nM + doxorubicin 500 nM, light, 1440 min, 0.1 µM): 35% and 36%
best combination partner (TNBC BT-549 cells; PS 100 nM + drug, light): with paclitaxel followed by doxorubicin or fluorouracil; also recorded: with paclitaxel, followed by doxorubicin or fluorouracil
cell inhibition (%), combination with fluorouracil (TNBC BT-549 cells; PS 100 nM + fluorouracil 25 μM, 24 h, light 0.96 J cm−2): 64%
cell viability reduction (difference) vs PS alone (TNBC BT-549 cells; [3]): 46%
effect of added fluorouracil compared to fluorouracil-treated cell viability (TNBC BT-549 cells; [3]): reduced cell survival
cell survival, co-treatment with fluorouracil upon light (TNBC BT-549 cells; PS 100 nM + fluorouracil 25 μM, light, 1440 min): 36%
cell survival, co-treatment with methotrexate in the dark (TNBC BT-549 cells; PS 100 nM + methotrexate 500 nM, 24 h, dark): 85%
cell inhibition (%), combination with methotrexate (TNBC BT-549 cells; PS 100 nM + methotrexate 500 nM, 24 h, light 0.96 J cm−2): 42%
cell inhibition (%), combination with paclitaxel (TNBC BT-549 cells; PS 100 nM + paclitaxel 50 nM, 24 h, light 0.96 J cm−2): 65%
cell survival, co-treatment with paclitaxel upon light (TNBC BT-549 cells; PS 100 nM + paclitaxel 50 nM, light, 1440 min): 35%
chemophotodynamic potency against TNBC cells, summary (TNBC BT-549 cells; PS 100 nM alone or in combination, light): better activity against TNBC cells than the starting compound MePheo
cell survival, PS alone (TNBC BT-549 cells; PS 100 nM, light 0.96 J/cm^2, 1440 min, 0.1 µM): 82% and 81%
cytotoxicity in the absence of light, PS alone (TNBC BT-549 cells; PS 500 nM, dark): No cytotoxicity
combination therapy vs monotherapy (doxorubicin) (TNBC BT-549 cells; PS + doxorubicin, light): better photodynamic effect when co-treated with doxorubicin than PS-treatment alone
combination therapy vs monotherapy (fluorouracil) (TNBC BT-549 cells; PS + fluorouracil, light): best compared to monotherapy alone and with the other PSs used
cell viability reduction (difference) vs PS alone (TNBC BT-549 cells; PS at lower concentration (CPA: 50 nM) + methotrexate 500 nM, light): 10%
combination index (CI) with cisplatin (TNBC cells [2]; PS 50 nM + cisplatin 25 μM): 0.99
synergism vs additive vs antagonism effect with cisplatin (TNBC cells [2]; PS 50 nM + cisplatin 25 μM): (NA) (NA (0.9-1.10), nearly additive)
combination index (CI) with doxorubicin (TNBC cells [2]; PS 50 nM + doxorubicin 500 nM): 2.44
synergism vs additive vs antagonism effect with doxorubicin (TNBC cells [2]; PS 50 nM + doxorubicin 500 nM): (A) (A (1.45-3.3), antagonism)
ranking of combination partners based on CI, decreasing order (TNBC cells [2]; PS 50 nM + drug): fluorouracil>paclitaxel>cisplatin
combination index (CI) with fluorouracil (TNBC cells [2]; PS 50 nM + fluorouracil 25 μM): 0.48
synergism vs additive vs antagonism effect with fluorouracil (TNBC cells [2]; PS 50 nM + fluorouracil 25 μM): (S) (S (0.3-0.7), synergism)
combination index (CI) with paclitaxel (TNBC cells [2]; PS 50 nM + paclitaxel 50 nM): 0.74
synergism vs additive vs antagonism effect with paclitaxel (TNBC cells [2]; PS 50 nM + paclitaxel 50 nM): (MS) (MS (0.7-0.85), moderate synergism)
cell morphology, PS co-treated with cisplatin, light (human TNBC BT-549 cells; PS 50 nM + cisplatin 25 μM, light 0.48 J/cm^2 (FIG. 18S-T)): a significant number of shrunk cells and chromatin condensation can be seen
cell morphology, PS co-treated with doxorubicin (human TNBC BT-549 cells; PS 50 nM + doxorubicin 500 nM, irradiated): No significant difference
cell morphology, PS co-treated with methotrexate, light (human TNBC BT-549 cells; PS 50 nM + methotrexate 500 nM, light (FIG. 18X-Y)): Very few cells exhibit chromatin condensation
cell morphology, PS co-treated with paclitaxel (human TNBC BT-549 cells; PS 50 nM + paclitaxel 50 nM, light (FIG. 18M-O)): shrunk cells and chromatin fragmentation are evident
cell morphology, PS-treated then light (human TNBC BT-549 cells; PS 50 nM, 24 h, light (FIG. 18F-H)): not as obvious
preferred mode of cell death (human TNBC BT-549 cells; PS co-treated with paclitaxel or cisplatin): apoptosis
